The source of these data is patent publication US11253589B2, “Modulation of the immune response” (priority 2007, dated 2022).

The subject of one series is C57BL/6 mice. The experiment in a line: EAE induced by immunization with MOG35-55 in CFA. It counts as in vivo, mouse.
The conditions of series [1]: compared with toxic effects reported for TCDD; cited from earlier work.
The target of the next series is T1, AHR (Homo sapiens, UniProt P35869).
T1 sequence (P35869 11-848): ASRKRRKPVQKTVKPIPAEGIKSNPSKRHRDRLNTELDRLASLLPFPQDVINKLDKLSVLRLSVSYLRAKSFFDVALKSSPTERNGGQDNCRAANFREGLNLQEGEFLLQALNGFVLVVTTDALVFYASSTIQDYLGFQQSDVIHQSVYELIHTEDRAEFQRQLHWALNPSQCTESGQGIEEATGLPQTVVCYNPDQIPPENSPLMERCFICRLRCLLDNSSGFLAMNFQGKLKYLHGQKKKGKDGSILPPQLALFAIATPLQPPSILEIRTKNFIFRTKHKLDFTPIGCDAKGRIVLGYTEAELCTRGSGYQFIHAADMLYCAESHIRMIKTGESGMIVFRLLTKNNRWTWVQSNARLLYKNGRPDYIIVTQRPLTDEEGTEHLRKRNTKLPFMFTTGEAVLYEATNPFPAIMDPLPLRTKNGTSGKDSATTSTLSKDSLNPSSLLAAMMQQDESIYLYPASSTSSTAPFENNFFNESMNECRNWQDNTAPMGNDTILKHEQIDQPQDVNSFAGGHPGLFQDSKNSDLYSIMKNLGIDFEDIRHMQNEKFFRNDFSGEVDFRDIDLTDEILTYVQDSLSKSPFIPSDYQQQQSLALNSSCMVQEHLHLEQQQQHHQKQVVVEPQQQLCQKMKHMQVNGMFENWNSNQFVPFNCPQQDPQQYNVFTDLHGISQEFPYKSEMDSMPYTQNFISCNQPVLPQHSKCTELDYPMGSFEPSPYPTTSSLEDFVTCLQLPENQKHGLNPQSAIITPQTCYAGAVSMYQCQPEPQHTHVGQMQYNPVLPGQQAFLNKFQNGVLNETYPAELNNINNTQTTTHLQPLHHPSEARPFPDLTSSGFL
The conditions noted are these: cited from earlier work.

A further series relates to CD4+Foxp3:GFP- T cells. The series is described as follows: In vitro conversion of CD4+Foxp3:GFP- T cells into Treg. The conditions noted are these: resveratrol 50 μM. It counts as cell-based, mouse. The method, then:
CD4+ T cells were purified from Foxp3gfp knock in mice using anti-CD4 beads (Miltenyi, Auburn, Calif., USA) and sorted (FACSAria™ cell sorter, BD Biosciences) into naive CD4^+ Foxp3:GFP^− or CD4^+ Foxp3:GFP T cells. CD4^+ Foxp3:GFP^− T cells were stimulated with plate bound 1 μg/ml of anti-CD3 (145-2C11, eBioscience) and 2 μg/ml of anti-CD28 (37.51, eBioscience) for 5 days, supplemented with recombinant IL-2 (50 U/ml) at day 2 and 4, and analyzed by FACS at day 5 for their differentiation into […]. TGFβ1 (2.5 ng/ml) was used as a positive control.
To establish if TCDD triggered the conversion of CD4^+Foxp3^− T cells into new Foxp3^+ Treg cells, FACS sorted CD4^+Foxp3:GFP− T cells were activated in vitro with antibodies to CD3 and CD28 in the presence of TCDD, and the generation of CD4^+Foxp3:GFP^+ Treg was followed by FACS. TGFb1 was used as a positive control.

The next series deals with CD4+Foxp3:GFP+ Treg. The experiment in a line: Treg suppressive activity assay. Type of series: cell-based, mouse. The following applies: resveratrol treated cells. How it is done: Cells were cultured in serum-free X-VIVO 20™ media (BioWhittaker, Walkersville, Md., USA) for 72 hours. During the last 16 hours, cells were pulsed with 1 μCi of [^3H]thymidine (PerkinElmer, Waltham, Mass., USA) followed by harvesting on glass fiber filters and analysis of incorporated [^3H]thymidine in a beta-counter (1450 Microbeta, Trilux, PerkinElmer). Alternatively, culture supernatants were collected […] activation and the cytokine concentration was determined by ELISA using antibodies for IFN-γ, IL-17, IL-4, IL-10 from BD Biosciences and antibodies to TGF-β from R&D Systems. For suppression assays, MACS purified CD4^+CD25^− T cells from naïve C57BL/6 mice (1-5×10^4 cells/well) were stimulated with antibodies to CD3 and C57BL/6 irradiated spleen cells (0.3-1.5×10^4 cells/well) for 3 days in the presence of different ratios of CD4^+ GFP^+ retrovirus-transduced T cells.
To investigate the active suppression of MOG35-55-specific Teff by Treg, Foxp3^gpf knock in mice were immunized with MOG35-55/CFA, treated daily with intreaperitoneal ITE ([…]) and the recall response to MOG35-55 and a mitogenic antibody to CD3 antibody was studied on FACS-sorted CD4^+ T cells and CD4^+ FoxP3:GFP− Teff. […] This suppressed response to MOG35-55 was lost upon removal of the CD4^+FoxP3:GFP^+ Treg (FIG. 26). To further analyze the MOG35-55-specific suppressive activity of the CD4^+FoxP3:GFP^+ Treg, they were cocultured at different ratios and assayed for the suppression of MOG35-55 or anti-CD3-triggered proliferation of CD4^+FoxP3:GFP− Teff form 2D2 mice, which harbor a TCR specific for MOG35-55.

For series [2], the system named is CD4+ CD62L+CD45RO- T cells. The experiment in a line: In vitro differentiation of human naive CD4+ T cells, suppression and real time PCR. Type of series: cell-based. The conditions noted are these: 5 days activation with antibodies to CD3 and CD28; TGFb1 2.5 ng/ml or TCDD alone. How it is done:
To investigate the potential of AHR targeting for the induction of human Treg we activated purified naïve CD4^+ CD62L^+CD45RO^− T cells for healthy donors for 5 days with antibodies to CD3 and CD28 in the presence of TCDD 100 nM or TGFb1 2.5 ng/ml or both.
To study the functionality of the putative human Treg induced in the presence of TCDD we studied their suppressive activity of CD4^+ CD25^High and CD4^+CD25^Low T cells following 5 days of activation in the of TCDD or TGFb1 2.5 ng/ml or both.
To investigate the mechanism mediating the suppressive activity of the TCDD-induced Treg, we analyzed them by real time PCR for the expression of several genes that have been previously linked to the suppressive function of Treg. […] Accordingly, IL-10-specific blocking antibodies could interfere with the suppressive activity of Treg induced with TCDD, but not the of those induced with TGFb1 and TCDD (FIG. 42). Thus, TCDD-induced CD4^+CD25^High T cells are FoxP3^− regulatory cells whose suppressive activity is mediated, at least partially, via IL-10, resembling the phenotype of type 1 Treg (Roncarolo et al., Immunol Rev. 212, 28 (2006); Roncarolo and Gregori, Eur J Immunol. 38, 925 (2008)).
For orientation: Real-time PCR tracks product formation cycle by cycle.

Take `O=Cc1c2c(cc3c1=Nc1ccccc1-3)=Nc1ccccc1-2` [FICZ, 6-formylindolo[3,2-b]carbazole]: in the series on C57BL/6 mice (AHR-ligand loaded nanoparticles, 45 femtomoles weekly starting at day 0), the EAE development entry is recorded as “worsened the disease”. In the case of `NCCc1c[nH]c2ccccc12` [TA, tryptamine], the toxic effects entry in series [1] is listed as “do not display the toxic effects”. Moreover, the AHR affinity result at AHR was “high affinity AHR ligands”. Further, the EAE suppression result in the series on C57BL/6 mice (TA combined with the monoamine oxidase inhibitor Tranylcypromine) is given as “effectively suppresses EAE”. With `Oc1ccc(C=Cc2cc(O)cc(O)c2)cc1` [resveratrol], in the series with CD4+Foxp3:GFP- T cells, the “induction of Treg by TGFβ1 and TCDD” value was “interfered with the induction of Treg”. The “suppressive activity of Treg” value with CD4+Foxp3:GFP+ Treg is on record as “Decreases in the suppressive activity”. Regarding “TGFb1: TGFβ1, positive control for Treg induction”, the “induction of suppressive (regulatory) T cells” value in series [2] is listed as “did not result in the induction of suppressive T cells”.
